# Patent publication US9340559B2, “Proteasome inhibitor delanzomib for use in the treatment of lupus” (Cephalon, Inc., priority 2011, dated 2016)
# Experiments:
# NZM mice [1] = experiment: Collagen type-I cross-linker (CTx) bone resorption biomarker ELISA, serum of NZM mice; assay type: in vivo, mouse
# Method: Assay is performed as instructed by the manufacturer. Briefly, biotinylated ratlaps antigen is first added in each well of a 96-well ELISA plate. This plate is covered and incubated for 30 minutes at RT. Plate is washed five times with washing solution and incubated with standards or unknown samples in appropriate wells followed by primary Ab. Incubate overnight for 18 hours at 4° C. followed by washing with buffer. Secondary incubation includes a peroxidase conjugated goat anti-rabbit IgG added to each well and incubation at RT for 1 hour. Incubation with chromogenic substrate solution for 15 minutes at RT in the dark develops the plate for analysis. Stopping solution halts the reaction, absorbance is measured within 2 hours at 450 nm.
# NZM mice [2] = experiment: Renal histopathology scoring (kidney IC-GN), NZM mice (Example 2); assay type: in vivo, mouse
# Method: For histological analyses, the left kidney from each animal is removed and fixed in 10% buffered neutral formalin (EMD) for 48 hours on an orbital rocker at 25° C., then washed overnight with running dH2O and stored in 70% ethanol at 4° C. until ready to be processed. Kidney stains used for histological analyses included hematoxylin and eosin (H&E), Periodic Acid Schiff (PAS) and Trichrome stains (Wistar Institute, Philadelphia, Pa.). All 3 stained sections are used by the pathologist for scoring purposes. All histological scoring is performed blinded and by an independent board certified veterinary medical pathologist (Julie Engiles, VMD, DACVP). Multiple stains are used to determine score values. Images in FIG. 39 show worst affected area of section selected blindly by the pathologist.
# Kidney IC-GN Scoring Method (Smith, Dong et al. 2007):
# 1. Glomerular cellularity—Score 1-5: Null, low, moderate, high, severe
# 2. Glomerular necrosis—Score 1-5: Null, low, moderate, high, severe
# 3. Glomerulosclerosis—Score 1-5: Null, low, moderate, high, severe
# 4. Interstitial infiltration—Score 1-5: Null, low, moderate, high, severe
# 5. Tubular atrophy—Score 1-5: Null, low, moderate, high, severe
# 6. Interstitial fibrosis—Score 1-5: Null, low, moderate, high, severe
# 7. Vasculitis—Score 1-5: Null, low, moderate, high, severe
# Specific Pathologist Definitions: • Necrosis is defined by the presence of nuclear debris/pyknosis within the glomerular tuft indicative of “necrosis.” In many samples, this is a very mild, rare finding within only a very few segments of the glomerular tuft. Also consider effacement of the glomerular tuft by PAS positive, Trichrome negative material necrosis. • Glomerular sclerosis is defined by increased fibroplasia or fibrosis within the glomerular tuft or capsule. […] Most of the vascular changes are mild and could be considered “arteriosclerosis” characterized by proliferation of the smooth muscle cells, and hyalinization of the extracellular matrix. This change may reflect hypertension secondary to glomerular pathology. In very few animals is there overt “vasculitis.” Most inflammatory changes are within the walls of the blood vessels, with little to no damage to the endothelium, and no overt hemorrhage/fibrin leakage. Many also have perivascular rims of fibroblasts.
# [3] = COMPOUND A once and twice weekly
smiles,measurement,setting,value
"CC(C)C[C@H](NC(=O)[C@@H](NC(=O)c1cccc(-c2ccccc2)n1)[C@@H](C)O)B(O)O [COMPOUND A, [(1R)-1-[[(2S,3R)-3-hydroxy-2-[6-phenyl-pyridine-2-carbonyl)amino]-1-oxobutyl]amino]-3-methylbutylboronic acid]","p, serum concentration of collagen type I cross-linker vs G8 Dex 1.5 mg/kg 3× wk ip",NZM mice [1]; G1 3 mg/kg 1× wk ip,P < 0.01
same,"Serum CTx linker AUC, percent change vs vehicle","NZM mice [1]; G1 3 mg/kg ip, 1× wk",−41%
same,"p, serum concentration of collagen type I cross-linker vs G8 Dex 1.5 mg/kg 3× wk ip",NZM mice [1]; G2 3 mg/kg 2× wk ip,P < 0.01
same,"Serum CTx linker AUC, percent change vs vehicle","NZM mice [1]; G2 3 mg/kg ip, 2× wk",−40%
same,serum CTx levels compared to vehicle,NZM mice [1]; treatment groups,no change in CTx levels
same,"p, glomerular cellularity (GC) vs G3 Bortezomib 0.3 mg/kg 1× wk",NZM mice [2]; 3 mg/kg 1× wk,p < 0.01
same,"p, glomerular cellularity (GC) vs G6 DEX 1.5 mg/kg 1× wk",NZM mice [2]; 3 mg/kg 1× wk,p < 0.01
same,"p, glomerular cellularity (GC) vs G7 Vehicle",NZM mice [2]; 3 mg/kg 1× wk,p < 0.001
same,"p, glomerular necrosis (GN) vs G3 Bortezomib 0.3 mg/kg 1× wk",NZM mice [2]; 3 mg/kg 1× wk,p < 0.05
same,"p, glomerular necrosis (GN) vs G6 DEX 1.5 mg/kg 1× wk",NZM mice [2]; 3 mg/kg 1× wk,p < 0.01
same,"p, glomerulosclerosis (GS) vs G3 Bortezomib 0.3 mg/kg 1× wk",NZM mice [2]; 3 mg/kg 1× wk,p < 0.001
same,"p, glomerulosclerosis (GS) vs G6 DEX 1.5 mg/kg 1× wk",NZM mice [2]; 3 mg/kg 1× wk,p < 0.001
same,"p, glomerulosclerosis (GS) vs G7 Vehicle",NZM mice [2]; 3 mg/kg 1× wk,p < 0.01
same,"p, interstitial fibrosis (IF) vs G3 Bortezomib 0.3 mg/kg 1× wk",NZM mice [2]; 3 mg/kg 1× wk,p < 0.01
same,"p, interstitial fibrosis (IF) vs G6 DEX 1.5 mg/kg 1× wk",NZM mice [2]; 3 mg/kg 1× wk,p < 0.001
same,"p, interstitial fibrosis (IF) vs G7 Vehicle",NZM mice [2]; 3 mg/kg 1× wk,p < 0.01
same,"p, interstitial infiltration (II) vs G6 DEX 1.5 mg/kg 1× wk",NZM mice [2]; 3 mg/kg 1× wk,p < 0.01
same,"p, interstitial infiltration (II) vs G7 Vehicle",NZM mice [2]; 3 mg/kg 1× wk,p < 0.05
same,"p, tubular atrophy (TA) vs G3 Bortezomib 0.3 mg/kg 1× wk",NZM mice [2]; 3 mg/kg 1× wk,p < 0.001
same,"p, tubular atrophy (TA) vs G6 DEX 1.5 mg/kg 1× wk",NZM mice [2]; 3 mg/kg 1× wk,p < 0.001
same,"p, tubular atrophy (TA) vs G7 Vehicle",NZM mice [2]; 3 mg/kg 1× wk,p < 0.001
same,"p, vasculitis (VA) vs G6 DEX 1.5 mg/kg 1× wk",NZM mice [2]; 3 mg/kg 1× wk,p < 0.01
same,"p, vasculitis (VA) vs G7 Vehicle",NZM mice [2]; 3 mg/kg 1× wk,p < 0.01
same,"p, glomerular cellularity (GC) vs G3 Bortezomib 0.3 mg/kg 1× wk",NZM mice [2]; 3 mg/kg 2× wk,p < 0.01
same,"p, glomerular cellularity (GC) vs G6 DEX 1.5 mg/kg 1× wk",NZM mice [2]; 3 mg/kg 2× wk,p < 0.01
same,"p, glomerular cellularity (GC) vs G7 Vehicle",NZM mice [2]; 3 mg/kg 2× wk,p < 0.001
same,"p, glomerular necrosis (GN) vs G3 Bortezomib 0.3 mg/kg 1× wk",NZM mice [2]; 3 mg/kg 2× wk,p < 0.05
same,"p, glomerular necrosis (GN) vs G6 DEX 1.5 mg/kg 1× wk",NZM mice [2]; 3 mg/kg 2× wk,p < 0.01
same,"p, glomerulosclerosis (GS) vs G3 Bortezomib 0.3 mg/kg 1× wk",NZM mice [2]; 3 mg/kg 2× wk,p < 0.001
same,"p, glomerulosclerosis (GS) vs G6 DEX 1.5 mg/kg 1× wk",NZM mice [2]; 3 mg/kg 2× wk,p < 0.001
same,"p, glomerulosclerosis (GS) vs G7 Vehicle",NZM mice [2]; 3 mg/kg 2× wk,p < 0.01
same,"p, interstitial fibrosis (IF) vs G3 Bortezomib 0.3 mg/kg 1× wk",NZM mice [2]; 3 mg/kg 2× wk,p < 0.01
same,"p, interstitial fibrosis (IF) vs G6 DEX 1.5 mg/kg 1× wk",NZM mice [2]; 3 mg/kg 2× wk,p < 0.001
same,"p, interstitial fibrosis (IF) vs G7 Vehicle",NZM mice [2]; 3 mg/kg 2× wk,p < 0.01
same,"p, interstitial infiltration (II) vs G6 DEX 1.5 mg/kg 1× wk",NZM mice [2]; 3 mg/kg 2× wk,p < 0.01
same,"p, interstitial infiltration (II) vs G7 Vehicle",NZM mice [2]; 3 mg/kg 2× wk,p < 0.05
same,"p, tubular atrophy (TA) vs G3 Bortezomib 0.3 mg/kg 1× wk",NZM mice [2]; 3 mg/kg 2× wk,p < 0.01
same,"p, tubular atrophy (TA) vs G6 DEX 1.5 mg/kg 1× wk",NZM mice [2]; 3 mg/kg 2× wk,p < 0.001
same,"p, tubular atrophy (TA) vs G7 Vehicle",NZM mice [2]; 3 mg/kg 2× wk,p < 0.001
same,"p, vasculitis (VA) vs G7 Vehicle",NZM mice [2]; 3 mg/kg 2× wk,p < 0.05
same,glomerular cellularity reduction vs vehicle,NZM mice [2]; [3],~50%
same,glomerulosclerosis reduction vs vehicle,NZM mice [2]; [3],~53%
same,interstitial fibrosis reduction vs vehicle,NZM mice [2]; [3],~55%
same,interstitial infiltration reduction vs vehicle,NZM mice [2]; [3],43-46%
same,tubular atrophy reduction vs vehicle,NZM mice [2]; [3],55-59%
